Values quoted from earlier work, collected in US20070275382A1, “Biomarkers for the Efficacy of Somatostatin Analogue Treatment” (priority 2003, published 2007).
Read-outs that look alike come from different tables or passages of the source.

Legend:
hSST-2 = hSST-2 (Homo sapiens, UniProt P30874); conditions: background statement, cited from earlier work
hSST-3 = hSST-3 (Homo sapiens, UniProt P32745); conditions: background statement; cited from earlier work
hSST-3, sequence (P32745 whole entry): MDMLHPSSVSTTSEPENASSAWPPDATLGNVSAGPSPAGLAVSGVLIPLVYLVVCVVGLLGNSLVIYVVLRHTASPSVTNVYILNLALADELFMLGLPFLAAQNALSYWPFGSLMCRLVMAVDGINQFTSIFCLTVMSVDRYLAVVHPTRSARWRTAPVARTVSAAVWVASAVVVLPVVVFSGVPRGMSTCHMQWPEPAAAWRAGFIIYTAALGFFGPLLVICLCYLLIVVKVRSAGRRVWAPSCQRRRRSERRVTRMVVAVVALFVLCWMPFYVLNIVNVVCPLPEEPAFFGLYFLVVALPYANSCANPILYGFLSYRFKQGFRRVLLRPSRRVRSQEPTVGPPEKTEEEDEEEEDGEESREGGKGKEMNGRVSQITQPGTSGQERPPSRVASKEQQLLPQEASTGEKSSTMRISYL

hSST-2, sequence (P30874 whole entry): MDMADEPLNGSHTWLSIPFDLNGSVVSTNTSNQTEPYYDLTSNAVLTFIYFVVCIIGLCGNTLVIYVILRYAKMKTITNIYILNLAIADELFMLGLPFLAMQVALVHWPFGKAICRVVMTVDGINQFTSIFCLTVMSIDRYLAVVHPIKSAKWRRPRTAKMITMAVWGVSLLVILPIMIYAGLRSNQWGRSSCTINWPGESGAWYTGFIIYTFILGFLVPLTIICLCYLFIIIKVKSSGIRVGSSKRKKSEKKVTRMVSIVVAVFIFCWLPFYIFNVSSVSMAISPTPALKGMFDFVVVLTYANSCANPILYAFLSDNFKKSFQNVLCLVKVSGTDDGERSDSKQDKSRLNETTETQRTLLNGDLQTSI

Structure (SMILES)	affinity/binding to somatostatin receptor subtype 2 (SSTR2) (hSST-2)	affinity/binding to somatostatin receptor subtype 2 (SSTR2) (hSST-2; listed as Sandostatin®)	binding to SSTR3 (hSST-3)
C[C@@H](O)[C@@H]1NC(=O)[C@H](CCCCN)NC(=O)[C@@H](Cc2c[nH]c3ccccc23)NC(=O)[C@H](Cc2ccccc2)NC(=O)[C@@H](NC(=O)[C@H](N)Cc2ccccc2)CSSC[C@@H](C(=O)N[C@H](CO)[C@@H](C)O)NC1=O [octreotide]	selective high affinity	binds mainly to SSTR2	to some extent
CC(C)[C@@H]1NC(=O)[C@H](CCCCN)NC(=O)[C@@H](Cc2c[nH]c3ccccc23)NC(=O)[C@H](Cc2ccc(O)cc2)NC(=O)[C@@H](NC(=O)[C@H](N)Cc2ccc3ccccc3c2)CSSC[C@@H](C(=O)N[C@H](C(N)=O)[C@@H](C)O)NC1=O [lanreotide]	selective high affinity		
